According to patent US6316409A, “Modified ligands of calcium-dependent binding proteins” (Medical Research Council, priority 1996, dated 2001):
Peptide text beside a SMILES is read from it.

What was measured:
bovine brain calmodulin [1] = biological target: T1, bovine brain calmodulin (Bos taurus, UniProt P62157); test: stopped-flow measurement of kisom of calmodulin-binding peptides; conditions: changes in tryptophan fluorescence
T1 construct: Complexes between calmodulin from bovine brain (1 μM, Sigma); purchased Sigma; host or cells: bovine brain (tissue-derived)
From the text: It has been shown by Torok and Trentham (1994) that smooth muscle MLCK-derived peptides bind to calmodulin with a biphasic kinetic according to the scheme: [drawing 1]
in which P is the peptide, C is calmodulin, P-C is the first complex formed on association of P and C, which then undergoes a conformational isomerisation to P-C*.
(§1) For a kinetic and thermodynamic characterisation of the binding of the peptides of the present invention to bovine brain calmodulin, we have measured the kinetic isomerisation, association, and dissociation constants from which dissociation constants can be derived.
kisom constants have been measured by stopped-flow, detecting changes in tryptophan fluorescence for all the peptides except 3 (SEQ ID NO:4), in which the tryptophan is replaced by alanine.

bovine brain calmodulin [2] = biological target: T1, bovine brain calmodulin; test: BIAcore surface plasmon resonance, kon and koff of calmodulin binding to biotinylated peptides; conditions: for koff / kon / increase in kon with respect to the wild-type peptide 1: BIAcore; for koff: read-out: koff (s^-1)^B; for kon: read-out: kon (s^-1 M^-1)^B
From the text: as §1
koff =k-1·k-2 /(k+2 +k-2)
Real-time interaction analysis by surface plasmon resonance on a BIAcore instrument (Jonsson et al., 1991) was used to determine kon and koff constants. Biotinylated peptides 1-17 were bound to commercially available streptavidin-coated microsensor chips (Pharmacia Biosensor), in order to achieve a surface capacity of 100-200 surface plasmon resonance units of calmodulin bound. Different concentrations of calmodulin (5, 10, 20, 50 and 100 nM in the order of FIG. 2) were injected and allowed to associate with the peptides. Regeneration of the surface was achieved by injection of 5 μl TBS+[…] which dissociates the calmodulin-peptide complex.

calmodulin = calmodulin (Bos taurus, UniProt P62157); test: koff by competition experiments, native PAGE of fluorescein-labelled peptide/calmodulin complexes; type: binding, bovine; parameters: Complexes between calmodulin from bovine brain (1 μM, Sigma); purchased Sigma; host or cells: bovine brain (tissue-derived); conditions: for koff: competition with 30-fold excess unlabelled peptide, room temperature, gel buffer, read-out: koff (s^-1)^C; for dissociation from calmodulin in competition with excess unlabelled peptide, in words: FIG. 3
Procedure: Complexes between calmodulin from bovine brain (1 μM, Sigma) and fluorescein-labelled sMLCK-derived peptides (as described in Table 1 (SEQ ID NOS:2-18)) were prepared in gel buffer (25% gel mix [4 g sucrose+1 mg bromophenol blue in water to give a 10 ml solution]+75% TBSC [50 mM TRIS pH 7.4, […]+50 μM CaCl2)] and run on a 15% native PAGE gel (5 ml 30% acrylamide-bisacrylamide solution+4.5 ml water+0.5 ml 3M Tris, pH 8.8, +1 μl 1M CaCl2 polymerised with 30 μl 25% ammonium persulphate and 9 μl TEMED) using 14.4 g/l glycine+3 g/l Tris-base+0.1 mM CaCl2 as running buffer. Peptides were labelled either with iodoacetamido fluorescein (Molecular Probes) or with iodoacetamido-LC-biotin (Pierce) essentially as previously described by Neri et al., (1995). In these conditions, the fluorescence of the positively-charged labelled peptides can be detected only if they form a stable complex with calmodulin.
In order to obtain an independent experimental confirmation if the BIAcore results, koff constants for peptides 1-17 towards calmodulin were determined by competition experiments. 30 nM fluorescein-labelled peptide/calmodulin complexes in gel buffer were competed at room temperature for different times with 30-fold excess of unlabelled peptide. The resulting mixtures were run on native PAGE gels and imaged by LUANA as described above. The bands in the image obtained were integrated using the LUANA software (Neri et al., 1996) and the corresponding intersities plotted versus time and fitted with a single exponential, from which koff constants were derived. In order to normalise band intensities against pipetting errors, the samples contained 6 nM free fluorescein which ran with the front. The fluorescein bands were integrated and used to normalise the calmodulin/fluorescent peptide complex band intensity. The results of competitions for peptides 1, 2, 3, 6, 9, and 14 are shown in this FIG. 3. Incubation time in minutes is indicated under the lanes.
The volumes of the bands were plotted versus competition time and fitted to a single exponential, from which koff values were derived.
The fastest competitions (peptides 1-4, 9 and 13, SEQ ID NOS:2-5,10, and 14) were over by the time the calmodulin/fluorescent peptide complex entered the gel (approximately 5-10 minutes from pipetting a molar excess of unlabelled peptide; FIG. 3), from which a condition on the off-rate constant koff >1×10^-3 s^-1 was derived. Even for these fast off-rates, complexes can be detected by native polyacrylamide gel electrophoresis because of the well known gel "cage effect" (Fried and Crothers, 1981; Garner and Revzin, 1981).

| Compound | kisom. (s^-1)^A (bovine brain calmodulin [1]) | koff (bovine brain calmodulin [2]) | kon (bovine brain calmodulin [2]) | koff (calmodulin) | increase in kon with respect to the wild-type peptide 1 (bovine brain calmodulin [2]) | improvement in Kd / affinity for calmodulin over the wild type peptide, in words (bovine brain calmodulin [2]; Table 1) | dissociation from calmodulin in competition with excess unlabelled peptide, in words (calmodulin) |
| --- | --- | --- | --- | --- | --- | --- | --- |
| CC[C@H](C)[C@H](NC(=O)[C@H](Cc1ccccc1)NC(=O)[C@H](CC(N)=O)NC(=O)[C@H](CCCCN)NC(=O)[C@H](CCCCN)NC(=O)[C@H](Cc1c[nH]c2ccccc12)NC(=O)[C@H](CCCNC(=N)N)NC(=O)[C@H](C)NC(=O)[C@H](C)NC(=O)[C@H](C)NC(=O)[C@@H](N)CS)C(=O)N[C@@H](C)C(=O)N[C@H](C(=O)N[C@@H](CO)C(=O)N[C@@H](C)C(=O)N[C@@H](C)C(=O)N[C@@H](CC(N)=O)C(=O)N[C@@H](CCCNC(=N)N)C(=O)N[C@@H](C)C(=O)N[C@@H](CCCCN)C(=O)N[C@@H](CCCCN)C(=O)N[C@H](C(=O)N[C@@H](CO)C(N)=O)[C@@H](C)CC)C(C)C [Peptide 13] (H-CAAARWKKNFIAVSAANRAKKIS-NH2; N-terminus assumed) | 1.8 (10.8) × 10^-1 s^-1 | 0.00084 s⁻¹ | 930000 M⁻¹ s⁻¹ | ≥ 0.001 s⁻¹ | – | – | – |
| CC[C@H](C)[C@H](NC(=O)[C@H](Cc1ccccc1)NC(=O)[C@H](CC(N)=O)NC(=O)[C@H](CCCCN)NC(=O)[C@H](CCCCN)NC(=O)[C@H](Cc1c[nH]c2ccccc12)NC(=O)[C@H](CCCNC(=N)N)NC(=O)[C@H](C)NC(=O)[C@H](C)NC(=O)[C@H](C)NC(=O)[C@@H](N)CS)C(=O)N[C@@H](C)C(=O)N[C@H](C(=O)N[C@@H](CO)C(=O)N[C@@H](C)C(=O)N[C@@H](C)C(=O)N[C@@H](CC(N)=O)C(=O)N[C@@H](CCCNC(=N)N)C(=O)N[C@@H](Cc1ccccc1)C(=O)N[C@@H](C)C(=O)N[C@@H](CCCCN)C(=O)N[C@H](C(=O)N[C@@H](CO)C(N)=O)[C@@H](C)CC)C(C)C [Peptide 14] (H-CAAARWKKNFIAVSAANRFAKIS-NH2; N-terminus assumed) | 1.6 (10.2) × 10^-2 s^-1 | 0.00014 s⁻¹ | 2.5e+06 M⁻¹ s⁻¹ | 0.00015 s⁻¹ | 4-5 fold | greatest improvement in affinity | intermediate off-rate |
| CC[C@H](C)[C@H](NC(=O)[C@H](Cc1ccccc1)NC(=O)[C@H](CC(N)=O)NC(=O)[C@H](CCCCN)NC(=O)[C@H](CCCCN)NC(=O)[C@H](Cc1c[nH]c2ccccc12)NC(=O)[C@H](CCCNC(=N)N)NC(=O)[C@H](C)NC(=O)[C@H](C)NC(=O)[C@H](C)NC(=O)[C@@H](N)CS)C(=O)N[C@@H](C)C(=O)N[C@H](C(=O)N[C@@H](CO)C(=O)N[C@@H](C)C(=O)N[C@@H](C)C(=O)N[C@@H](CC(N)=O)C(=O)N[C@@H](C)C(=O)N[C@@H](Cc1ccccc1)C(=O)N[C@@H](CCCCN)C(=O)N[C@@H](CCCCN)C(=O)N[C@H](C(=O)N[C@@H](CO)C(N)=O)[C@@H](C)CC)C(C)C [Peptide 12] (H-CAAARWKKNFIAVSAANAFKKIS-NH2; N-terminus assumed) | 1.7 (10.4) × 10^-1 s^-1 | 0.00041 s⁻¹ | 1.6e+06 M⁻¹ s⁻¹ | 0.00083 s⁻¹ | – | – | – |
| CC[C@H](C)[C@H](NC(=O)[C@H](CCCCN)NC(=O)[C@H](CCCCN)NC(=O)[C@H](Cc1ccccc1)NC(=O)[C@H](CCCNC(=N)N)NC(=O)[C@H](CC(N)=O)NC(=O)[C@H](C)NC(=O)[C@H](C)NC(=O)[C@H](CO)NC(=O)[C@@H](NC(=O)[C@H](C)NC(=O)[C@H](C)NC(=O)[C@H](Cc1ccccc1)NC(=O)[C@H](CC(N)=O)NC(=O)[C@H](CCCCN)NC(=O)[C@H](CCCCN)NC(=O)[C@H](Cc1c[nH]c2ccccc12)NC(=O)[C@H](CCCNC(=N)N)NC(=O)[C@H](C)NC(=O)[C@H](C)NC(=O)[C@H](C)NC(=O)[C@@H](N)CS)C(C)C)C(=O)N[C@@H](CO)C(N)=O [Peptide 8] (H-CAAARWKKNFAAVSAANRFKKIS-NH2; N-terminus assumed) | 1.1 (10.3) × 10^-1 s^-1 | 0.00023 s⁻¹ | 920000 M⁻¹ s⁻¹ | 0.00047 s⁻¹ | – | – | – |
| CC[C@H](C)[C@H](NC(=O)[C@H](Cc1ccccc1)NC(=O)[C@H](CC(N)=O)NC(=O)[C@H](CCCCN)NC(=O)[C@H](CCCCN)NC(=O)[C@H](Cc1c[nH]c2ccccc12)NC(=O)[C@H](CCCNC(=N)N)NC(=O)[C@H](C)NC(=O)[C@H](C)NC(=O)[C@H](C)NC(=O)[C@@H](N)CS)C(=O)N[C@@H](C)C(=O)N[C@H](C(=O)N[C@@H](CO)C(=O)N[C@@H](C)C(=O)N[C@@H](C)C(=O)N[C@@H](CC(N)=O)C(=O)N[C@@H](CCCNC(=N)N)C(=O)N[C@@H](Cc1ccccc1)C(=O)N[C@@H](CCCCN)C(=O)N[C@@H](CCCCN)C(=O)N[C@@H](C)C(=O)N[C@@H](CO)C(N)=O)C(C)C [Peptide 16] (H-CAAARWKKNFIAVSAANRFKKAS-NH2; N-terminus assumed) | 8.7 (11.5) × 10^-2 s^-1 | 0.00031 s⁻¹ | 810000 M⁻¹ s⁻¹ | 0.00028 s⁻¹ | – | – | – |
| CC[C@H](C)[C@H](NC(=O)[C@H](Cc1ccccc1)NC(=O)[C@H](CC(N)=O)NC(=O)[C@H](CCCCN)NC(=O)[C@H](CCCCN)NC(=O)[C@H](Cc1c[nH]c2ccccc12)NC(=O)[C@H](CCCNC(=N)N)NC(=O)[C@H](C)NC(=O)[C@H](C)NC(=O)[C@H](C)NC(=O)[C@@H](N)CS)C(=O)N[C@@H](C)C(=O)N[C@H](C(=O)N[C@@H](CO)C(=O)N[C@@H](C)C(=O)N[C@@H](C)C(=O)N[C@@H](CC(N)=O)C(=O)N[C@@H](CCCNC(=N)N)C(=O)N[C@@H](Cc1ccccc1)C(=O)N[C@@H](CCCCN)C(=O)N[C@@H](CCCCN)C(=O)N[C@H](C(=O)N[C@@H](CO)C(N)=O)[C@@H](C)CC)C(C)C [Peptide 1, CAAA-RWKKNFIAVSAANRFKKIS-CONH2] (H-CAAARWKKNFIAVSAANRFKKIS-NH2; N-terminus assumed) | 1.9 (10.7) × 10^-1 s^-1 | 0.0024 s⁻¹ | 650000 M⁻¹ s⁻¹ | ≥ 0.001 s⁻¹ | – | – | dissociated from calmodulin in a few minutes |
| CC[C@H](C)[C@H](NC(=O)[C@H](Cc1ccccc1)NC(=O)[C@H](CC(N)=O)NC(=O)[C@H](CCCCN)NC(=O)[C@H](CCCCN)NC(=O)[C@H](C)NC(=O)[C@H](CCCNC(=N)N)NC(=O)[C@H](C)NC(=O)[C@H](C)NC(=O)[C@H](C)NC(=O)[C@@H](N)CS)C(=O)N[C@@H](C)C(=O)N[C@H](C(=O)N[C@@H](CO)C(=O)N[C@@H](C)C(=O)N[C@@H](C)C(=O)N[C@@H](CC(N)=O)C(=O)N[C@@H](CCCNC(=N)N)C(=O)N[C@@H](Cc1ccccc1)C(=O)N[C@@H](CCCCN)C(=O)N[C@@H](CCCCN)C(=O)N[C@H](C(=O)N[C@@H](CO)C(N)=O)[C@@H](C)CC)C(C)C [Peptide 3] (H-CAAARAKKNFIAVSAANRFKKIS-NH2; N-terminus assumed) | – | 0.005 s⁻¹ | 3.2e+06 M⁻¹ s⁻¹ | ≥ 0.001 s⁻¹ | 4-5 fold | – | dissociated from calmodulin in a few minutes |
